Data set [1] is described as follows: Plasma protein binding in human plasma at 750 mg administered as single dose. To be noted: read-out: PPB (converted). In kind it is ADME, organism-based.
A short description of data set [2]: AUC (0 to infinity) in human epithelial lining fluid at 750 mg administered as single dose. In kind it is ADME, tissue-based. Set-up: dose 750 mg, time infinity.
Data set [3] can be described thus: Penetration ratio, ratio of AUC in human epithelial lining fluid to fAUC in human plasma at 750 mg administered as single dose. The following applies: in vivo. In kind it is ADME.

For the compound `CCCCCCCCCCNCCN[C@@]1(C)C[C@H](O[C@H]2[C@H](Oc3c4cc5cc3Oc3ccc(cc3Cl)[C@@H](O)[C@@H](NC(=O)[C@@H](CC(C)C)NC)C(=O)N[C@@H](CC(N)=O)C(=O)N[C@H]5C(=O)N[C@H]3C(=O)N[C@H](C(=O)N[C@H](C(=O)O)c5cc(O)c(CNCP(=O)(O)O)c(O)c5-c5cc3ccc5O)[C@H](O)c3ccc(c(Cl)c3)O4)O[C@H](CO)[C@@H](O)[C@@H]2O)O[C@@H](C)[C@H]1O` [TELAVANCIN], the fraction unbound in data set [1] was 0.1. Further, the AUC(0-inf) (in general, total exposure, with the tail of the curve extrapolated) in data set [2] came to 74800 ng·h/mL. In addition, the Ratio in data set [3] worked out at 1.01.

(Values after ChEMBL document CHEMBL1275431, “Telavancin penetration into human epithelial lining fluid determined by population pharmacokinetic modeling and Monte Carlo simulation” (Antimicrob Agents Chemother, 2008).)
